In ChEMBL document CHEMBL4680201, “Design, synthesis, and pharmacological evaluation of 4- or 6-phenyl-pyrimidine derivatives as novel and selective Janus kinase 3 inhibitors” (Eur J Med Chem, 2020) one finds IC50 data, which are given here for 13 compounds.

In assay [1] the target is Tyrosine-protein kinase JAK2 (Homo sapiens, UniProt O60674). It counts as ADME.
For assay [2], the target named is Tyrosine-protein kinase JAK1 (Homo sapiens, UniProt P23458). The assay can be described thus: Inhibition of recombinant human GST-tagged JAK1 cytoplasmic domain (866 to 1154 residues) expressed in baculovirus expression system using TK-substrate-biotin preincubated for 5 mins followed by substrate addition and measured after 30 mins by HTRF assay.
Chain of Tyrosine-protein kinase JAK1 (P23458 whole entry, the tested form may be a part): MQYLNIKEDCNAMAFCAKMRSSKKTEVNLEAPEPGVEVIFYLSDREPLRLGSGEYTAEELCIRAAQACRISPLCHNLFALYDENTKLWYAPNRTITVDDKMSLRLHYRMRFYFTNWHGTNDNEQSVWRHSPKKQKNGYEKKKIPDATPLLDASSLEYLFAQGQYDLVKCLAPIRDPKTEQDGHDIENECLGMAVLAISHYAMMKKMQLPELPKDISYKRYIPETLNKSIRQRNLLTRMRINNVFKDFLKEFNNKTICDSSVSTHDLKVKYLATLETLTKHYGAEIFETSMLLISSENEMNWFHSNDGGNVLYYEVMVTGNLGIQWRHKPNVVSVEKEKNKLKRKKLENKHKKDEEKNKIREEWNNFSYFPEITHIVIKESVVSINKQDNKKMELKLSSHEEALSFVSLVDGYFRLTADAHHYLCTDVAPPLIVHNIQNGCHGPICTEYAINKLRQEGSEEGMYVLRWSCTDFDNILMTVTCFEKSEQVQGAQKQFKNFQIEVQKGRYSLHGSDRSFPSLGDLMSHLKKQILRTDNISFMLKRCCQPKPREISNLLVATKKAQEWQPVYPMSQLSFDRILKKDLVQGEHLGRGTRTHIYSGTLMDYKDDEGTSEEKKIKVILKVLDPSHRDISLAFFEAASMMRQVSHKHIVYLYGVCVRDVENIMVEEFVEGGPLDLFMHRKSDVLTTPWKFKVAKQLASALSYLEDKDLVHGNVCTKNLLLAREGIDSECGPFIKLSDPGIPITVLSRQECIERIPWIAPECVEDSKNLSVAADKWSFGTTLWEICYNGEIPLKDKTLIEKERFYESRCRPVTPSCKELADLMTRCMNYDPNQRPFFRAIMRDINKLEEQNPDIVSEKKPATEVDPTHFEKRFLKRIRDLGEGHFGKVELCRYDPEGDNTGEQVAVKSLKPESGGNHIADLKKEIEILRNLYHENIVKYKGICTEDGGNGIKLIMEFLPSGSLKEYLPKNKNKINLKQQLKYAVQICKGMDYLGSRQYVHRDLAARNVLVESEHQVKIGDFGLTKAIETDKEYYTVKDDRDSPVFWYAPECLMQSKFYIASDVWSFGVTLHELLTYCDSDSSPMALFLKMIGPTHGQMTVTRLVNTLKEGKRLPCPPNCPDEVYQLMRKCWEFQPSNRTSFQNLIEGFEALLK
The target in assay [3] is Non-receptor tyrosine-protein kinase TYK2 (Homo sapiens, UniProt P29597). The assay can be described thus: Inhibition of recombinant human N-terminal GST-tagged TYK2 cytoplasmic domain (833 to 1187 residues) expressed in baculovirus expression system using TK-substrate-biotin preincubated for 5 mins followed by substrate addition and measured after 30 mins by HTRF assay.
Chain of Non-receptor tyrosine-protein kinase TYK2 (P29597 whole entry, the tested form may be a part): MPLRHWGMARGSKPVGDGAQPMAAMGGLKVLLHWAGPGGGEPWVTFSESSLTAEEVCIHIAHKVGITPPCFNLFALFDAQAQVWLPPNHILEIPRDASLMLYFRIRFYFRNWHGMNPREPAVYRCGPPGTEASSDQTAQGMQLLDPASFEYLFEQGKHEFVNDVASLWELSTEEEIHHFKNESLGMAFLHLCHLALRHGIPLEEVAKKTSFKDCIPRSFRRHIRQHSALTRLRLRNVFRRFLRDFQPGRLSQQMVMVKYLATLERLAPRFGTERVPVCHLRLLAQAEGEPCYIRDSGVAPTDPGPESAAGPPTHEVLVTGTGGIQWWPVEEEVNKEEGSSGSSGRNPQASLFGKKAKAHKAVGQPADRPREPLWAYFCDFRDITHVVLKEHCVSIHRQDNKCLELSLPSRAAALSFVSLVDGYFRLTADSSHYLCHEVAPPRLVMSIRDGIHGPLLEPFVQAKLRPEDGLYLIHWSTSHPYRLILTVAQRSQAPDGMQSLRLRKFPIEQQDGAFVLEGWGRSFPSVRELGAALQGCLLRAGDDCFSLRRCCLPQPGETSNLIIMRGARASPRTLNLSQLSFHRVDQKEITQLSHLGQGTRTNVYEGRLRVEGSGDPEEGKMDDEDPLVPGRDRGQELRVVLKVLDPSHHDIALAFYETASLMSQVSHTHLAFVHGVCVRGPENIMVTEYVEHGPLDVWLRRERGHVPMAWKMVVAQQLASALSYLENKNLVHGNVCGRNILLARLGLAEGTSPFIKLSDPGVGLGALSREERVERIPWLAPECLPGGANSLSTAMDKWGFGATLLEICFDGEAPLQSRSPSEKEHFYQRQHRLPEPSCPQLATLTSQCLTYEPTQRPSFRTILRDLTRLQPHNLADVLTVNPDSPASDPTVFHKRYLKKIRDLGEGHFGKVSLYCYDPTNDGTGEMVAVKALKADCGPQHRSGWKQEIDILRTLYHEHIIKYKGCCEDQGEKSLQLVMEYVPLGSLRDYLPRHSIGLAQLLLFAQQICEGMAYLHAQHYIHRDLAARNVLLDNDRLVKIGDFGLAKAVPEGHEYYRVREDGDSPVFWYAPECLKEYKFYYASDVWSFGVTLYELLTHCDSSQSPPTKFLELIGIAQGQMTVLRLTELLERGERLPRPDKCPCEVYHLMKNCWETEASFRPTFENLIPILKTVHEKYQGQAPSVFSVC

Assay [4] has as its target T1, Tyrosine-protein kinase JAK3 (Homo sapiens, UniProt P52333).
T1 sequence (P52333 whole entry): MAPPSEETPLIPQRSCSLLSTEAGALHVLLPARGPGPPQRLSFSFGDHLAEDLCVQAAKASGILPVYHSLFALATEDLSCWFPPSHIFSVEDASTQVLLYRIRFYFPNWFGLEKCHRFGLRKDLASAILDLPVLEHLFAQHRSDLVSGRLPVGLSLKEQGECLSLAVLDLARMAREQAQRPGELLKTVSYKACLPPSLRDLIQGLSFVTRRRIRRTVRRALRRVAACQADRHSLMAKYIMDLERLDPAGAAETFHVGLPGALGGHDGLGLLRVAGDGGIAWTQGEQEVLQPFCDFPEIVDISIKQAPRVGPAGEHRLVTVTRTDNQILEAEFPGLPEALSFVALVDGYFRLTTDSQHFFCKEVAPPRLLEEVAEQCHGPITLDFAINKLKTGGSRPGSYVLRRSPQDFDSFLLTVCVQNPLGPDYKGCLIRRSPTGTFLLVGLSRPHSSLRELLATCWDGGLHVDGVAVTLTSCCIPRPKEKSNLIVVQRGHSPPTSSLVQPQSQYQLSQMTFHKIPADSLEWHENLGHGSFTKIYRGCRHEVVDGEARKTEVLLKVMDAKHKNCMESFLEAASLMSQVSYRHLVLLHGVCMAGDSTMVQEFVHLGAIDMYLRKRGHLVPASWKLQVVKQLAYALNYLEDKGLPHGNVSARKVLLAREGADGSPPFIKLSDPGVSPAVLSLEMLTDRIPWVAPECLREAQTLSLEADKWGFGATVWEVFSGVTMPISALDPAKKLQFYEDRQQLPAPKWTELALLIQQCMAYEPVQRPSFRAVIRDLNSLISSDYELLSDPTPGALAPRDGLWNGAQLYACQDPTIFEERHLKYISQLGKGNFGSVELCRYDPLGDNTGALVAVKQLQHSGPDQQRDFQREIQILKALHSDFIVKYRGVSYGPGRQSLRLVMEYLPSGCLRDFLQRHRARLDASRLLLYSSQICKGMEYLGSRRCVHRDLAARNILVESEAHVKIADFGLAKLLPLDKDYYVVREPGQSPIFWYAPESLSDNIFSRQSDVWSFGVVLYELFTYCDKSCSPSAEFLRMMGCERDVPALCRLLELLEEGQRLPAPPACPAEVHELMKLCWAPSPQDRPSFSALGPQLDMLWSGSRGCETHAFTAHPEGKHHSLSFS

Chain of Tyrosine-protein kinase JAK2 (O60674 whole entry, the tested form may be a part): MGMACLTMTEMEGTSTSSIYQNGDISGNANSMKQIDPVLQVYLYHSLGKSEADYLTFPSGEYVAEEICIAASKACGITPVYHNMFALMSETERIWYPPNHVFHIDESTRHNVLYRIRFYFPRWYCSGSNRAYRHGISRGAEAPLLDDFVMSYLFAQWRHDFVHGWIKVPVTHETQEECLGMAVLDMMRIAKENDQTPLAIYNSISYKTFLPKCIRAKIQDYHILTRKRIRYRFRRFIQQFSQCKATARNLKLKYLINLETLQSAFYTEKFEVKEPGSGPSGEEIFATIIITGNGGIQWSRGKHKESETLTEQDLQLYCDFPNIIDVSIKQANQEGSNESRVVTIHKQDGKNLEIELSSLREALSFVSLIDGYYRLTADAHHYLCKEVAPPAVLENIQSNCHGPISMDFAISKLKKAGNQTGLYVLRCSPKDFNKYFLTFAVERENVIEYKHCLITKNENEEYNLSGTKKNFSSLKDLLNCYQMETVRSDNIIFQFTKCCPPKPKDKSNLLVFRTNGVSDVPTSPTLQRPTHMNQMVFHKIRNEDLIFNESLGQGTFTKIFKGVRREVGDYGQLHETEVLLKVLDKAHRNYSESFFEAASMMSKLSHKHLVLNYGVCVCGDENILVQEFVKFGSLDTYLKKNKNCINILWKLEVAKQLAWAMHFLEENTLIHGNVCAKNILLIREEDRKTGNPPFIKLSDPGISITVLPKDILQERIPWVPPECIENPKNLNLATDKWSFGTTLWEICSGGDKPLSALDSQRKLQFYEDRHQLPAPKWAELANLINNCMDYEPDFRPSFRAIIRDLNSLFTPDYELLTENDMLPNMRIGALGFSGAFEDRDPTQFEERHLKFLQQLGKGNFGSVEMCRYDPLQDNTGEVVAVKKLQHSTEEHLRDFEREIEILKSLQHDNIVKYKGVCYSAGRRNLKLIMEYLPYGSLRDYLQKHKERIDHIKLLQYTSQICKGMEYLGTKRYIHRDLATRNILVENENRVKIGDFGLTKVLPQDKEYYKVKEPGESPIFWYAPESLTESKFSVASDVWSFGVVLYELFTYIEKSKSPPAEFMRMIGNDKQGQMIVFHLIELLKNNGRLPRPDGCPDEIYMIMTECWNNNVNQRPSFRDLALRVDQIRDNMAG

A word on the IC50: it is the concentration needed to halve the response being measured. For the compound `N#CCC(=O)Nc1cccc(-c2ccnc(Nc3ccc(N4CCOCC4)cc3)n2)c1`, the IC50 was 216 nM in assay [1], 2230 nM in assay [2], above 3000 nM in assay [3] and 152 nM in assay [4].

In the case of `C/C=C/C(=O)Nc1cccc(-c2ccnc(Nc3ccc(N4CCOCC4)cc3)n2)c1`, the IC50 came out at 2790 nM in assay [1], 2650 nM in assay [3] and 33 nM in assay [4].

Regarding `C/C=C/C(=O)Nc1cccc(-c2cc(Nc3ccc(N4CCOCC4)cc3)ncn2)c1`, the IC50 is 2130 nM in assay [1], 2880 nM in assay [2] and above 3000 nM in assay [3].

As for `COCCn1cc(Nc2cc(-c3cccc(NC(=O)CC#N)c3)ncn2)cn1`, the IC50 in assay [1] was 587 nM; in assay [2], 322 nM; in assay [3] it was 2260 nM; in assay [4], 65 nM.

Consider `C/C=C/C(=O)Nc1cccc(-c2cc(Nc3cnn(CCOC)c3)ncn2)c1`, for which the IC50 is 2580 nM in assay [1], 1290 nM in assay [2], above 3000 nM in assay [3] and 29 nM in assay [4].

Regarding `COCCn1cc(Nc2cc(-c3ccc(NC(=O)CC#N)cc3)ncn2)cn1`, the 50% inhibitory concentration (IC50) in assay [1] amounted to 1460 nM; in assay [2], 2680 nM; in assay [3], 1870 nM; in assay [4], 86 nM.

For `C=CC(=O)Nc1cccc(-c2ccnc(Nc3cnn(CCOC)c3)n2)c1`, the IC50 was 1290 nM in assay [1], 1100 nM in assay [2], 2870 nM in assay [3] and 55 nM in assay [4].

Regarding `N#CCC(=O)Nc1ccc(-c2ccnc(Nc3ccc(N4CCOCC4)cc3)n2)cc1`, the figures for the IC50 in assay [2] and in assay [3] were 433 nM and above 3000 nM, respectively.

Turning to `C/C=C/C(=O)Nc1ccc(-c2ccnc(Nc3cnn(CCOC)c3)n2)cc1`, the IC50 in assay [1] is 1980 nM; in assay [2] it was 1440 nM; in assay [3], above 3000 nM; in assay [4], 14 nM.

In the case of `C=CC(=O)Nc1cccc(-c2ccnc(Nc3ccc(N4CCOCC4)cc3)n2)c1`, the IC50 came to 1800 nM in assay [1], 2120 nM in assay [2], 2440 nM in assay [3] and 30 nM in assay [4].

Regarding `COCCn1cc(Nc2nccc(-c3ccc(NC(=O)CC#N)cc3)n2)cn1`, the IC50 in assay [2] stood at 183 nM; in assay [3], 2500 nM; in assay [4] it was 24 nM.

In the case of `C=CC(=O)Nc1ccc(-c2cc(Nc3cnn(CCOC)c3)ncn2)cc1`, the IC50 in assay [1] is above 3000 nM; in assay [2], 1660 nM; in assay [3] it was above 3000 nM; in assay [4], 67 nM.

Regarding `C=CC(=O)Nc1cccc(-c2cc(Nc3ccc(N4CCOCC4)cc3)ncn2)c1`, the IC50 is 2040 nM in assay [1], 1110 nM in assay [2] and 183 nM in assay [4].
